Laboratory results from US7893110B2 (Givaudan S.A., priority 2005, dated 2011).

What was measured:
mouth [1] = assay: Application in toothpaste: cooling sensation felt by panelist; type: in vivo; conditions: toothgel with 2.5 g of 2% sol. in PG per 100 g, plus peppermint oil; 1 g brushed on teeth, mouth rinsed with water
Text: [table] The chemicals are mixed in the toothgel, and 1 g of the toothgel is put on a toothbrush and a panelist's teeth are brushed. The mouth is rinsed with water and the water is spit out.

mouth [2] = assay: Application in mouthwash: cooling sensation; type: in vivo; conditions: mouthwash with 50 mL of 1% sol. in alcohol per liter, plus peppermint oil; 30 mL put in the mouth, swished, gargled and spit out
Protocol: [table] All the ingredients are mixed. 30 mL of obtained solution is put in the mouth, swished around, gargled and spit out.

Structure (SMILES) | cooling sensation in the mouth (mouth [1]) | cooling sensation in the mouth (mouth [2])
COc1ccc(NC(=O)C23CC4CC(CC(C4)C2)C3)cc1 [Example 2F, Adamantane-1-carboxylic acid (4-methoxy-phenyl)-amide] | cooling sensation | –
CC(C)(C)C1CCCCC1C(=O)Nc1ccc(CO)cc1 (centres unmarked) [Example 2L, 2-tert-Butyl-cyclohexanecarboxylic acid (4-hydroxymethyl-phenyl)-amide] | – | strong cooling sensation
